Experiment in all cases: inhibition of tumour cell growth, NCI panel, 48 h
Assay [1] has as its system SK-MEL-5 melanoma.
Assay [2] relates to MDA-MB-435.
The subject of assay [3] is BT-549 breast.
Assay [4] concerns RXF 393 renal.
In assay [5] the test system is M14 melanoma.
Assay [6] deals with HCT-15 colon.
Assay [7] concerns UACC-257 melanoma.
The test system of assay [8] is HOP-92 NSCLC.
Assay [9] concerns LOX IMVI melanoma.
For assay [10], the system named is NCI-H460 lung.

Values joined by “and” are separate entries in the source; they are usually repeats but may differ in a detail not shown here. Identical values can stand only once.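 96-well plates; 48 h exposure; 5 concentrations. Endpoints by linear interpolation between flanking doses. Not reached: highest tested concentration assigned. GI50 = concentration required for 50% inhibition of growth. TGI denotes the concentration required for complete inhibition of growth.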

Take `CC(C)c1ccc(C(c2c(O)c3ccccc3oc2=O)c2c(O)c3ccccc3oc2=O)cc1`: the TGI in [1] turned out to be 31.3 µM; in [2], 39.3 µM; in [3] it was 39.9 µM; in [4], 48.1 µM; in assay [5], 38.4 µM; in assay [6] it was 46.4 µM. The TGI is 53 µM in assay [7], 21.2 µM in [8], 33 µM in assay [9] and 37.6 µM in [10].

Take `CCCCCCCCCCCCSC1=CC(=O)C=CC1=O`: the GI50 in [1] was 5.54 µM; in [2] it was 15.6 µM; in assay [3] it was 1.34 µM; in assay [4], 2.86 µM; in [5], 11.7 µM; in [6], 1.92 µM. Moreover, the GI50 in [7] was 4.01 µM; in assay [8] it was 2.56 µM; in assay [9], 1.25 µM; in [10], 13.9 µM. The TGI in assay [1] is 14.3 µM; in assay [2], greater than 50 µM; in assay [3] it was 4.57 µM; in assay [4], 19.3 µM; in assay [5], greater than 37.1 µM; in assay [6] it was greater than 32.4 µM. Besides, the TGI is 15.9 µM in assay [7], 12.6 µM in assay [8], 4.3 µM in assay [9] and greater than 50 µM in assay [10].

Consider `O=C(C(=O)c1cccnc1)c1cccnc1`, for which the GI50 in assay [1], in [2], in assay [3], in [4], in assay [5] and in assay [6] was greater than 100 µM throughout. Moreover, the GI50 in assay [7], in assay [8], in [9] and in assay [10] was greater than 100 µM throughout. The TGI in assay [1], in assay [2], in assay [3], in assay [4], in assay [5] and in assay [6] was greater than 100 µM in each case. Moreover, the TGI in [7], in assay [8], in [9] and in assay [10] was greater than 100 µM in each case.

For the molecule `CN1CCN(C(=O)[C@@]2(C)CC[C@]3(C)CC[C@]4(C)C(=CC[C@@H]5[C@@]6(C)CC[C@H](OC(=O)c7cccnc7)C(C)(C)[C@@H]6CC[C@]54C)[C@@H]3C2)CC1`, the GI50 is 1.65 µM in assay [1]; 1.7 µM in assay [2]; 1.7 µM in [3]; 1.66 µM in [4]; 1.62 µM in assay [5]; 1.4 µM in assay [6]. In addition, the GI50 in assay [7] is 1.83 µM; in assay [8], 1.38 µM; in assay [9] it was 1.65 µM; in assay [10], 1.78 µM. The TGI in [1] was determined as 3.02 µM; in assay [2] it was 3.19 µM; in [3] it was 3.49 µM; in assay [4], 3.33 µM; in [5], 3.1 µM; in assay [6], 2.8 µM. Moreover, the TGI was found to be 3.53 µM in [7], 3.2 µM in [8], 3.06 µM in assay [9] and 3.33 µM in assay [10].

In the case of `O=C1c2c(c3c4ccccc4n(CCCCCCN4CCOCC4)c3c3[nH]c4ccccc4c23)C(=O)N1O`, the GI50 in [1] is 4.22 µM; in assay [2], 3.72 µM; in assay [3], 17.9 µM; in assay [4], 7.61 µM; in assay [5] it was 4.02 µM; in [6] it was 3.03 µM. For the same molecule, the GI50 in [7] is 24.5 µM; in [8], 13.2 µM; in assay [9], 0.21 µM; in [10] it was 1.81 µM. Moreover, the TGI was found to be 20 µM in assay [1]; 20.1 µM in assay [2]; 46.9 µM in assay [3]; 25.9 µM in assay [4]; 30.7 µM in assay [5]; 12.2 µM in [6]. The TGI in [7] was 56.6 µM; in [8], 38.3 µM; in [9], 0.736 µM; in assay [10], 3.66 µM.

`NS(=O)(=O)c1ccc(-n2nc(-c3ccccc3)cc2-c2cc(O)ccc2O)cc1`: the GI50 in [1] is greater than 100 µM; in assay [2] it was 92.1 µM; in assay [3], greater than 100 µM; in assay [4], greater than 100 µM; in [5], 31.9 µM; in assay [6], greater than 100 µM. The GI50 in [7] was 34.4 µM; in assay [8], greater than 100 µM; in assay [9], 27.7 µM; in assay [10], greater than 100 µM. The TGI in [1] was greater than 100 µM; in assay [2] it was greater than 100 µM; in [3] it was greater than 100 µM; in assay [4] it was greater than 100 µM; in assay [5], 80.8 µM; in [6], greater than 100 µM. For the same molecule, the TGI in assay [7] was greater than 100 µM; in assay [8] it was greater than 100 µM; in assay [9] it was 63.2 µM; in assay [10], greater than 100 µM.

`O=c1[nH][nH]c(=O)c2c(O)c(-c3ccccc3)ncc12`: the GI50 is 45.8 µM and 175 µM in assay [1]; 44.1 µM and 205 µM in assay [2]; 32.9 µM and 47.4 µM in [3]; 27.8 µM and 44.9 µM in assay [4]; 32.8 µM and 63.3 µM in assay [5]; 57.5 µM and 185 µM in assay [6]. Also, the GI50 in assay [7] is 46.2 µM and 272 µM; in [8] it was 30.4 µM and 50.1 µM; in assay [9] it was 38.9 µM and 123 µM; in [10], 55.6 µM and 146 µM. Also, the TGI was 357 µM in [1]; greater than 1000 µM in [2]; 357 µM in assay [3]; 62 µM and 187 µM in [4]; 385 µM in [5]; greater than 1000 µM in assay [6]. In addition, the TGI was 871 µM in [7]; 91.2 µM and 277 µM in assay [8]; 442 µM in assay [9]; 634 µM in assay [10].

These data come from PubChem BioAssay (NCI).
